Laboratory results taken from patent US20170209443A1, “ANTI-INFLAMMATORY EFFECT OF ORALLY ACTIVE FYN KINASE INHIBITOR SARA-CATINIB (AZD 0530) AGAINST PARKINSON'S DISEASE AND OTHER RELATED NEURODEGENARATIVE DISEASES” (Iowa State University Research Foundation, Inc., priority 2016, published 2017).
“Also recorded” adds a separate entry of the source. Residues, ends and D or L forms follow the SMILES beside them. *: point of attachment. Cbz = O=C(OCc1ccccc1)*; CH2F = FC*

Experiments:
[1] = system: microglial cell line; assay: Griess assay, aggregated α-synuclein induced nitrite production; assay type: cell-based; conditions: FIG. 26B
Procedure: Nitric oxide production by primary microglia was measured indirectly by quantification of nitrite in the supernatant using the Griess reagent (Sigma Aldrich). Microglia were plated in poly-D-lysine-coated 96-well plates at 1×10^5 cells/well. Cells were treated with 100 ng/mL of LPS for 24 h and after 100 μL of supernatant was collected from each well, an equal volume of the Griess reagent was added. The samples were incubated on a plate shaker at room temperature for 15 min until a stable color was obtained. The absorbance at 540 nm was measured using a Synergy 2 multi-mode microplate reader (BioTek Instruments) and the nitrite concentration was determined from a sodium nitrite standard curve.
(§1) In this study microglial cell line were pretreated with 1-30 μM Saracatinib, a Fyn kinase inhibitor followed by aggregated α-synuclein (1 μM) for 24 hours in a 96 well plate.

[2] = system: microglial cell line; assay: Luminex cytokine assay, aggregated α-synuclein induced pro-inflammatory cytokines; assay type: cell-based; conditions: 1-30 μM pretreatment, aggregated α-synuclein (1 μM) 24 hours; FIG. 26C
Procedure: Primary microglia obtained from wild-type, PKCδ^−/− and Fyn^−/− mice were seeded in poly-D-lysine-coated 96-well plates at 1×10^5 cells/well. The cells were treated for 24 h with 100-200 ng/mL LPS or 10 ng/mL TNFα. After treatment, 50 μL of supernatant from each well was collected and frozen at −80° C. The levels of cytokines and chemokines in the supernatants were determined using the Luminex bead-based immunoassay platform (Vignali 2000) and pre-validated multiplex kits (Milliplex mouse cytokine panel Millipore) according to the manufacturer's instructions.
as §1

[3] = system: immortalized WT microglial cells; assay: aggregated αSyn-induced IL-1β secretion from unprimed immortalized microglial cells; assay type: cell-based; conditions: pre-treatment before aggregated αSyn, FIG. 19B
Source text: The current model of the NLRP3 inflammasome postulates a two-step mechanism. A TLR or TNFR1 agonist, acting as the initial signal, induces the expression of pro-[…] and NLRP3 proteins. Subsequently, a second signal causes lysosomal rupture, mitochondrial ROS generation and/or K^+ efflux that acts as a danger signal resulting in the assembly and activation of the inflammasome complex and the processing and secretion of IL-1β into the cell supernatant. Since we observed that αSyn can signal the inflammasome and can also amplify LPS-mediated activation of NLRP3 and pro-IL-1β at the mRNA and protein level, we wondered if it could activate the NLRP3 inflammasome independent of an LPS-mediated priming step. Unprimed and immortalized WT and Capsase-1^−/− microglial cells were treated with aggregated αSyn for 4 h. As assessed via immunoblot, aggregated αSyn induced pro-IL-1β and NLRP3 to equivalent levels in both cell types (FIG. 19A). It also brought about the secretion of IL-1β in WT, and to a strikingly lower extent in the Caspase-1 deficient microglial cells. […] We next utilized primary BMDMs from WT, NLRP3^−/−, Caspase-1^−/− and Caspase-11^−/− mice to test the ability of αSyn to activate the NLRP3 inflammasome in them. As expected, we saw no genotypic difference in the ability of macrophages to induce pro-IL-1β and import αSyn (FIG. 19C). […]

[4] = system: microglial cell line; assay: cell viability assay in microglial cell line; assay type: cell-based; conditions: FIG. 26A
Procedure: as §1

[5] = system: MPTP-treated mice; assay: microglia activation (IBA-1) in substantia nigra, acute MPTP mouse model; assay type: in vivo, C57 black mice; conditions: FIG. 27; for expression of IBA-1 in SN tissue (Western blot): oral 5 mg/kg once on days 1 and 2, MPTP 18 mg/kg x 4 i.p., 24 hrs after last MPTP
Procedure: Thus, we evaluated whether the Sarcanatib attenuates microglial activation in the substantia nigra. C57 black mice were orally administered saracatinib (5 mg/kg, once) on days 1 and 2. On day 2, after sarcanatib administration, mice were subject to acute MPTP regimen. Mice were administered 18 mg/kg MPTP (4 i.p. injections at 2 hour intervals) and control animals received saline. Mice were sacrificed 24 hrs post last MPTP injection. Brain harvested and nigral tissue lysates were subject to Western blot analysis.

[6] = system: LPS-primed primary murine microglia; assay: αSyn-induced IL-1β and TNFα production in LPS-primed primary microglia; assay type: cell-based; conditions: pre-treatment post priming, before αSyn; FIG. 14A
Procedure: Misfolded proteins can activate the NLRP3 inflammasomes in microglia (Hafner-Bratkovic et al., 2012; Halle et al., 2008). After obtaining and purifying human αSyn (FIG. 15), we determined that endotoxin contamination was minimal, and that an equivalent concentration of LPS could not activate pro-inflammatory signaling in microglia (data not shown). Aggregation of αSyn was performed as previously described (Zhang et al., 2005). LPS-primed primary murine microglia were treated with α-synuclein for 24 h, with or without the pre-treatment of the pan-Caspase inhibitor ZVAD-FMK or the Caspase-1 specific inhibitor ZYVAD-FMK. […] Next, we treated LPS-primed bone marrow-derived macrophages (BMDMs) from WT, NLRP3^−/−, ASC^−/−, Caspase-1^−/− and Caspase-11^−/− mice with aggregated human α-synuclein for 24 h (FIG. 14B). […] By immunoblotting the levels of pro-IL-1β produced upon LPS treatment (FIG. 14C, 14D), we confirmed that none of these proteins played a role in the priming of the NLRP3 inflammasome. Next, we assessed the inflammasome activating ability of aggregated human αSyn in primary murine microglia by staining for ASC in LPS and LPS+αSyn treated microglia. […] We also utilized the ASC-CFP reporter cell line, which overexpresses ASC tagged with cyan fluorescent protein (CFP). NLRP3 inflammasome activation causes ASC to coalesce into a single speck within each cell. We counted the number of ASC-positive specks to measure inflammasome activation. ASC-CFP cells were primed with LPS and treated with aggregated αSyn for 2 h. Endogenous CFP fluorescence was assessed. In the αSyn treated group, specks of ASC were observed, indicating inflammasome activation (FIG. 14G). […] In summary, aggregated αSyn acts as an efficient danger signal to activate the NLRP3 inflammasome. Data from the A53T model and from PD patient lysates provide in vivo relevance as well. We also observed increased Fyn expression within the microglia in PD tissues, when compared to age-matched control tissues (FIG. 16).

Row | Compound | nitrite production induced by aggregated α-synuclein ([1]; 10 μM dose) | aggregated α-synuclein induced nitrite production ([1]; 1-30 μM pretreatment, aggregated α-synuclein (1 μM) 24 hours) | IL-1β production induced by aggregated α-synuclein [2] | IL-12 production induced by aggregated α-synuclein [2] | TNF-α production induced by aggregated α-synuclein [2] | αSyn-induced secretion of IL-1β [3] | cytotoxic cell death ([4]; 1-30 μM pretreatment, then aggregated α-synuclein (1 μM) for 24 hours) | cell death ([4]; low dose) | activation of microglia in the substantia nigra ([5]; MPTP-treated mice) | expression of IBA-1 in SN tissue (Western blot) [5] | expression of IBA-1 in SN tissue (Western blot) ([5]; listed as saracatinib) | secretion/production of TNFα [6] | αSyn-induced IL-1β cleavage and secretion [6]
1 | CN1CCN(CCOc2cc(OC3CCOCC3)c3c(Nc4c(Cl)ccc5c4OCO5)ncnc3c2)CC1 [Saracatinib] | attenuates the nitrite production | significantly blocked aggregated α-synuclein induced nitrite production in a dose-dependent manner | significantly attenuated; also recorded: attenuates the secretion | significantly attenuated; also recorded: attenuates the secretion | significantly attenuated; also recorded: attenuates the secretion | inhibited by pre-treatment with the Fyn inhibitor Saracatinib in a dose-dependent manner; also recorded: inhibited with pretreatment of the Fyn inhibitor Saracatinib in a dose dependent manner | did not induce cytotoxic cell death | not associated with cell death | blocked activation of microglia | not in Saracatinib and MPTP-treated animals | attenuated the expression of IBA-1 |  | 
2 | COC(=O)C[C@H](NC(=O)[C@H](C)NC(=O)[C@@H](NC(=O)OCc1ccccc1)C(C)C)C(=O)CF [ZVAD-FMK] (Cbz-Val-Ala-Asp(OMe)-CH2F) |  |  |  |  |  |  |  |  |  |  |  | only marginally reduced | reduced in the group pre-treated with the Caspase inhibitors
3 | COC(=O)C[C@H](NC(=O)[C@H](C)NC(=O)[C@@H](NC(=O)[C@H](Cc1ccc(O)cc1)NC(=O)OCc1ccccc1)C(C)C)C(=O)CF [ZYVAD-FMK] |  |  |  |  |  |  |  |  |  |  |  | only marginally reduced | reduced in the group pre-treated with the Caspase inhibitors
